The values below are quoted from earlier work in paper PMC12697872, “Rethinking the AI Paradigm for Solubility Prediction of Drug‑Like Compounds with Dual‐Perspective Modeling and Experimental Validation” (Advanced Science, 2025).

Each structure is given as a SMILES string.

The conditions of one data set: discarded ambiguous entries of DrugBank database; ref DrugBank database (version 5.1.12) 24; cited from earlier work.
As to `Oc1ccc2c(c1)[C@@]13CCCC[C@@]1(O)[C@@H](C2)N(CC1CCC1)CC3` [42408-82-2], the “Experimental solubility (descriptive)” value is recorded as “Moderate”.

Still in this data set, the particulars now being: experimental aqueous solubility as logS, sheet "DrugBank" of Supplement 2; ref DrugBank; cited from earlier work.
`C[C@@H]1C[C@H]2[C@@H]3CCC4=CC(=O)C=C[C@]4(C)[C@@]3(F)[C@@H](O)C[C@]2(C)[C@@]1(O)C(=O)CO` [Dexamethasone]: the ex_logS is -3.644.

For the compound `COc1c(C)c2c(c(O)c1C/C=C(\C)CCC(=O)OCCN1CCOCC1)C(=O)OC2` [Mycophenolate mofetil], the ex_logS was -4.004.

`NS(=O)(=O)c1cc2c(cc1Cl)N=C(CSCc1ccccc1)NS2(=O)=O` [Benzthiazide]: the ex_logS was -4.686.

As to `Nc1ccn([C@H]2CC[C@@H](CO)O2)c(=O)n1` [Zalcitabine], the ex_logS is given as -0.4416.

With `CCN(CC)C(=O)N1CCN(C)CC1` [Diethylcarbamazine], the ex_logS is on record as -0.4954.

Consider `Cc1cnc(Nc2ccc(OCCN3CCCC3)cc2)nc1Nc1cccc(S(=O)(=O)NC(C)(C)C)c1` [Fedratinib], for which the ex_logS is -5.118.

In the case of `CC1(C)S[C@@H]2[C@H](NC(=O)C(C(=O)O)c3ccccc3)C(=O)N2[C@H]1C(=O)O` (some centres unmarked) [Carbenicillin], the ex_logS is on record as -2.924.

Take `CC(C(=O)O)c1ccc(-c2ccccc2)c(F)c1` (centres unmarked) [Flurbiprofen]: the ex_logS is on record as -4.485.

On to `CN1CCCN=C1COC(=O)C(O)(c1ccccc1)C1CCCCC1` (centres unmarked) [Oxyphencyclimine], for which the ex_logS is given as -4.717.

As for `CC(=O)Oc1ccc2c3c1O[C@H]1[C@@H](OC(C)=O)C=C[C@H]4[C@@H](C2)N(C)CC[C@@]341` [Diamorphine], the ex_logS was -2.789.

Consider `CC(=O)[C@H]1CC[C@H]2[C@@H]3CCC4=CC(=O)CC[C@]4(C)[C@H]3CC[C@]12C` [progesterone], for which the ex_logS is -4.42.

As for `O=C(O)c1ccc(O)cc1O` [2,4-Dihydroxybenzoic Acid], the ex_logS is given as -1.426.

For the compound `CC(C(=O)O)C(=O)O` [Methylmalonic Acid], the ex_logS is given as 0.7597.

As to `O=Cc1ccc(O)cc1` [P-Hydroxybenzaldehyde], the ex_logS is -1.16.

With `CC(C)C(=O)Nc1ccc([N+](=O)[O-])c(C(F)(F)F)c1` [Flutamide], the ex_logS is -4.466.

As for `c1ccc(-c2ccc(C(c3ccccc3)n3ccnc3)cc2)cc1` (centres unmarked) [bifonazole], the ex_logS is recorded as -5.95.

As for `CN/C(=N/CCSCc1nc[nH]c1C)NC#N` [Cimetidine], the ex_logS was -1.43.

Turning to `COc1cc(Cc2cnc(N)nc2N)cc(OC)c1OC` [Trimethoprim], the ex_logS is given as -2.861.

Turning to `CC(C)N(CCC(C(N)=O)(c1ccccc1)c1ccccn1)C(C)C` (centres unmarked) [Disopyramide], the ex_logS is on record as -3.879.

For `CCC(N)Cc1c[nH]c2ccccc12` (centres unmarked) [Etryptamine], the ex_logS is on record as -2.567.

Turning to `Cc1ccccc1N1C(=O)c2cc(S(N)(=O)=O)c(Cl)cc2NC1C` (centres unmarked) [Metolazone], the ex_logS is given as -3.783.

For the compound `C[C@]12CCC(=O)C=C1CC[C@@H]1[C@@H]2CC[C@]2(C)C(=O)CC[C@@H]12` [Androstenedione], the ex_logS is reported as -3.695.

Take `CCCNC(C)C(=O)Nc1ccccc1C` (centres unmarked) [Prilocaine]: the ex_logS was -2.61.

Turning to `Cc1ncc(CO)c(C=O)c1O` [Pyridoxal], the ex_logS is on record as 0.4758.

For the compound `CC(OC(=O)NCC1(CC(=O)O)CCCCC1)OC(=O)C(C)C` (centres unmarked) [Gabapentin enacarbil], the ex_logS was -2.819.

Staying with this data set, now noted: experimental aqueous solubility as logS, sheet "DrugBank"; ref DrugBank database; cited from earlier work.
Regarding `C=CC(=O)N1CCN(c2nc(=O)n(-c3c(C)ccnc3C(C)C)c3nc(-c4c(O)cccc4F)c(F)cc23)[C@@H](C)C1` [Sotorasib], the ex_logS is given as -4.272.

With `CCCN(CCC)S(=O)(=O)c1ccc(C(=O)O)cc1` [Probenecid], the ex_logS was -4.022.

As to `Cn1cnc2c1c(=O)[nH]c(=O)n2C` [Theobromine], the ex_logS is on record as -2.737.

For the compound `C#CC1(OC(N)=O)CCCCC1` [Ethinamate], the ex_logS is listed as -1.825.

`COc1c(O[C@@H]2O[C@H](CO)[C@@H](O)[C@H](O)[C@H]2O)cc2c(c1OC)-c1ccc(SC)c(=O)cc1[C@@H](NC(C)=O)CC2` [Thiocolchicoside]: the ex_logS was -1.751.

As to `OCCc1ccccc1` [Phenylethyl alcohol], the ex_logS is -0.7406.

Consider `NS(=O)(=O)c1cc2c(cc1C(F)(F)F)NC(Cc1ccccc1)NS2(=O)=O` (centres unmarked) [Bendroflumethiazide], for which the ex_logS is -3.591.

As to `Nc1ccn([C@@H]2O[C@H](CO)[C@@H](O)C2(F)F)c(=O)n1` [Gemcitabine], the ex_logS is -1.236.

Regarding `COc1ccc2c(c1)N(C[C@H](C)CN(C)C)c1ccccc1S2` [Methotrimeprazine], the ex_logS is -4.215.

`CC(C)/N=c1\cc2n(-c3ccc(Cl)cc3)c3ccccc3nc-2cc1Nc1ccc(Cl)cc1` [Clofazimine]: the ex_logS is -6.323.

`CCn1c(=O)c2c(nc(/C=C/c3ccc(OC)c(OC)c3)n2C)n(CC)c1=O` [Istradefylline]: the ex_logS was -5.886.

`N[C@@H](CSCC(=O)O)C(=O)O` [Carbocisteine]: the ex_logS was -2.0492.

With `O=C(O)[C@H](O)c1ccccc1` [(R)-Mandelic acid], the ex_logS was -0.1409.

As to `NNCCc1ccccc1` [Phenelzine], the ex_logS was -0.6703.

Turning to `NC(=O)C[C@H](N)C(=O)O` [Asparagine], the ex_logS is -0.6526.

Regarding `CCn1cc(C(=O)O)c(=O)c2ccc(-c3ccncc3)cc21` [Rosoxacin], the ex_logS is recorded as -4.149.

Turning to `COc1ccc2c(c1)c(CC(=O)O)c(C)n2C(=O)c1ccc(Cl)cc1` [Indomethacin], the ex_logS is -5.582.

For the compound `Cc1nnc2n1-c1ccc(Cl)cc1C(c1ccccc1Cl)=NC2` [Triazolam], the ex_logS is given as -4.879.

Regarding `Cn1c(=O)c2[nH]cnc2n(C)c1=O` [Aminophylline], the ex_logS was -0.3227.

Consider `CCC(C)C(C)(COC(N)=O)COC(N)=O` (centres unmarked) [Mebutamate], for which the ex_logS is reported as -2.366.

`COC(=O)C1=C(C)NC(C)=C(C(=O)OCCN(C)Cc2ccccc2)C1c1cccc([N+](=O)[O-])c1` (centres unmarked) [Nicardipine]: the ex_logS is listed as -5.338.

`CCCCN1CCCCC1C(=O)Nc1c(C)cccc1C` (centres unmarked) [Bupivacaine]: the ex_logS is on record as -3.22.

Turning to `CC1=C(/C=C/C(C)=C\C=C\C(C)=C\C(=O)O)C(C)(C)CCC1` [Alitretinoin], the ex_logS is on record as -5.6996.

In the case of `CO/N=C(\C(=O)N[C@@H]1C(=O)N2C(C(=O)[O-])=C(C[N+]3(C)CCCC3)CS[C@H]12)c1csc(N)n1` [Cefepime], the ex_logS is recorded as -4.4513.

Consider `O=C(CCCN1CC=C(n2c(=O)[nH]c3ccccc32)CC1)c1ccc(F)cc1` [Droperidol], for which the ex_logS is -4.955.

On to `COc1ccc2[nH]c([S+]([O-])Cc3ncc(C)c(OC)c3C)nc2c1` (centres unmarked) [Omeprazole], for which the ex_logS is given as -2.983.

For the compound `Nc1ncnc2c1ncn2[C@@H]1O[C@H](COP(=O)(O)OP(=O)(O)OP(=O)(O)O)[C@@H](O)[C@H]1O` [ATP], the ex_logS was 0.2948.

For `CC/C=C\C/C=C\C/C=C\CCCCCCCC(=O)O` [alpha-Linolenic acid], the ex_logS is listed as -6.351.

With `O=c1[nH]c(=O)n([C@H]2C[C@H](O)[C@@H](CO)O2)cc1F` [Floxuridine], the ex_logS is listed as -1.316.

Consider `CN1CC[C@]23c4c5ccc(O)c4O[C@H]2C(=O)CC[C@@]3(O)[C@H]1C5` [Oxymorphone], for which the ex_logS was -1.099.

With `CCC[C@H](NC(=O)[C@@H]1[C@H]2CCC[C@H]2CN1C(=O)[C@@H](NC(=O)[C@@H](NC(=O)c1cnccn1)C1CCCCC1)C(C)(C)C)C(=O)C(=O)NC1CC1` [Telaprevir], the ex_logS is listed as -5.16.

On to `CN(C)CCCN1c2ccccc2CCc2ccccc21` [Imipramine], for which the ex_logS is -4.188.

Turning to `Nc1c2c(nc3ccccc13)CCCC2` [Tacrine], the ex_logS is -2.961.

`CC1=C(/C=C/C(C)=C/C=C/C(C)=C\C(=O)O)C(C)(C)CCC1` [Isotretinoin]: the ex_logS was -4.799.

Take `CCCCC(=O)O` [N-Valeric Acid]: the ex_logS is -0.6289.

`CCOC(=O)[C@H](CCc1ccccc1)N[C@@H](C)C(=O)N1CCC[C@H]1C(=O)O` [Enalapril]: the ex_logS was -1.361.

Take `C#C[C@]1(O)CC[C@H]2[C@@H]3CCc4cc(O)ccc4[C@H]3CC[C@@]21C` [Ethinylestradiol]: the ex_logS is -4.4188.

On to `CCCC(CCC)C(=O)O` [Valproic acid], for which the ex_logS is recorded as -2.045.

With `C[C@](N)(Cc1ccc(O)c(O)c1)C(=O)O` [Methyldopa], the ex_logS is given as -1.325.

As to `CN1C(C(=O)Nc2ccccn2)=C(O)c2sccc2S1(=O)=O` [Tenoxicam], the ex_logS is -4.379.

`OC[C@H]1O[C@@H](n2cnc3cncnc32)[C@H](O)[C@@H]1O` [Nebularine]: the ex_logS is given as -0.4018.

As for `CC12CCC(CC1=O)C2(C)C` (centres unmarked) [Camphor], the ex_logS is on record as -1.978.

Consider `OC[C@H]1O[C@@](CO)(O[C@H]2O[C@H](CO)[C@@H](O)[C@H](O)[C@H]2O)[C@@H](O)[C@@H]1O` [Sucrose], for which the ex_logS was 0.7878.

As for `O=C(O)CCCC[C@@H]1SC[C@@H]2NC(=O)N[C@@H]21` [Biotin], the ex_logS was -3.046.

Consider `CCCc1c2oc(C(=O)O)cc(=O)c2cc2c(=O)cc(C(=O)O)n(CC)c12` [Nedocromil], for which the ex_logS is on record as -3.4084.

As for `CCC(=O)O[C@H]1CC[C@H]2[C@@H]3CCC4=CC(=O)CC[C@]4(C)[C@H]3CC[C@]12C` [Testosterone propionate], the ex_logS is given as -5.367.

Regarding `CCC(=O)O[C@]1(c2ccccc2)CCN(C)C[C@H]1CC` [Betameprodine], the ex_logS is -5.285.

For the compound `Nc1nnc(-c2cccc(Cl)c2Cl)c(N)n1` [Lamotrigine], the ex_logS is recorded as -3.178.

In the case of `CCCC(=O)Nc1ccc(OCC(O)CNC(C)C)c(C(C)=O)c1` (centres unmarked) [Acebutolol], the ex_logS is -3.114.

`CC[C@@]1(O)C(=O)OCc2c1cc1n(c2=O)Cc2cc3c(CN(C)C)c(O)ccc3nc2-1` [Topotecan]: the ex_logS is -2.625.

For the compound `Cc1ncc(CO)c(CO)c1O` [Pyridoxine], the ex_logS is 0.1141.
